Patent US4677108A, “4-oxo-pyrido[2,3-d]pyrimidinone derivatives” (Warner-Lambert Company, priority 1984, dated 1987)
Values belong to the molecule of their own block, whether it stands above or below them.

Legend:
[1] = tested on: a. basilaris (arteria basilaris); test: Isolated smooth muscle: inhibition of K+-depolarization contraction of vessel rings, a. basilaris; parameters: species or system rabbit; conditions: organ bath, mean diameter 0.5-1.0 mm, read-out: Concentration (IC50) effecting a semimaximal inhibition of the K+-depolarization contraction of vessel rings, a. basilaris
From the text: (§1) Of rabbits (vessel ring segments, a basilaris, a. coronaria, a. saphena) are mounted in an organ bath in a way to allow the measurement of isometric contractions. Contractile activity is elicited by a potassium depolarization in Tyrode's solution. This experimetnal set-up is a well known standard model for the identification of substances blocking the calcium channels opened during the potassium depolarization (Fleckenstein,Calcium Antagonism in Heart and Smooth Muscle, J. Wiley & Sons, 1983).
(§2) Concentrations (IC50, mol/l) of compounds
(§3) effecting a semimaximal inhibition of the K+-
(§4) depolarization contraction of vessel rings in the
(§5) organ bath. A. bas. = arteria basilaris, a. cor. =
(§6) arteria coronaria, a. saph. = arteria saphena of
(§7) the rabbit; mean diameter 0.5-1.0 mm.

[2] = tested on: a. coronaria (arteria coronaria); test: Isolated smooth muscle: inhibition of K+-depolarization contraction of vessel rings, a. coronaria; parameters: species or system rabbit; conditions: organ bath, mean diameter 0.5-1.0 mm, read-out: Concentration (IC50) effecting a semimaximal inhibition of the K+-depolarization contraction of vessel rings, a. coronaria
From the text: as §1, §2, §3, §4, §5, §6, §7

[3] = tested on: a. saphena (arteria saphena); test: Isolated smooth muscle: inhibition of K+-depolarization contraction of vessel rings, a. saphena; parameters: species or system rabbit; conditions: Oryctolagus cuniculus, organ bath, mean diameter 0.5-1.0 mm, read-out: Concentration (IC50) effecting a semimaximal inhibition of the K+-depolarization contraction of vessel rings, a. saphena
From the text: as §1, §2, §3, §4, §5, §6, §7

[4] = tested on: isolated papillary muscles of the guinea-pig; test: Isolated papillary muscles: changes in the contraction amplitude; conditions: field excitation 250/minute; for activation at 1 µM: at ED100, read-out: Δ% (percent change of contraction amplitude versus control) at ED100; for EC100: read-out: ED100 (effective concentration, maximal effect), contraction amplitude; for EC50: read-out: ED50 (effective concentration, semimaximal effect), contraction amplitude
From the text: Papillary muscles from the left ventricle of the guinea-pig are mounted, like isolated vessels, in an organ bath in a way to allow the measurement of isometric contractions. Electric excitation is achieved by means of field excitation at a frequency of 250/minute (duration of excitation 10 msec., amplitude supramaximal).
Changes in the contraction amplitude of isolated
papillary muscles of the guinea-pig (excitation
frequency 250/minute, duration of excitation 10 msec.,
excitation amplitude 10-20 V field excitation). IC =
inhibition concentration, ED = effective concentration
in mol/l. Indices 50 and 100 correspond to semi-
maximal and maximal effect. Δ% = percent change of
contraction amplitude versus control.

[5] = tested on: spontaneously hypertensive rats (SHR); test: Spontaneously hypertensive rat: systolic blood pressure after oral administration; type: in vivo
From the text: This test model employing hypertension of genetic origin served to test Example Number 1(a) for its antihypertensive efficacy.
Effect of Example Number 1a on the systolic blood
pressure of spontaneously hypertensive rats (SHR)

[6] = tested on: rats anesthetized with inactin; test: Anesthetized rat (inactin): blood pressure and heart rate; type: in vivo; conditions: 100 mg/kg ID (n=3)
Description: This test model using rats anesthetized with inactin served to test Example Number 1a in a dosage of 100 mg/kg ID (n=3). The heart rate remained unchanged whereas the blood pressure fell by 40% below the starting value (75 minutes PA).

[7] = Cavia porcellus, 10 msec., 10-20 V, maximal effect
[8] = Cavia porcellus, 10 msec., 10-20 V, semimaximal effect

SMILES: CCOC(=O)C1=C(C)Nc2ncn(C(C)C)c(=O)c2C1c1ccccc1 (racemic) [Example 3a, (±)-3,4,5,8-Tetrahydro-3-isopropyl-7-methyl-4-oxo-5-phenyl-pyrido[2,3-d]pyrimidine-6-carboxylic acid ethyl ester]
IC50 [1]: 40 nM
IC50 [2]: 45 nM

SMILES: CCOC(=O)C1=C(C)Nc2ncn(C(C)C)c(=O)c2C1c1ccccc1F (racemic) [Example 3, (±)-5-(2-Fluorophenyl)-3,4,5,8-tetrahydro-3-isopropyl-7-methyl-4-oxo-pyrido[2,3-d]pyrimidine-6-carboxylic acid ethyl ester]
IC50 [1]: 20000 nM
IC50 [3]: 9000 nM
activation at 1 µM ([4]; Cavia porcellus): 30%
EC100 [4, 7]: 1 µM
EC50 [4, 8]: 22 nM
Δ% (percent change of contraction amplitude versus control) at ED50 [4]: +15%
IC50 [2]: 20000 nM

SMILES: CCOC(=O)C1=C(C)Nc2nc[nH]c(=O)c2C1c1ccccc1 (racemic) [Example 1, (±)-3,4,5,8-Tetrahydro-7-methyl-4-oxo-5-phenylpyrido[2,3-d]pyrimidine-6-carboxylic acid ethyl ester]
IC50 [1]: 8000 nM
IC50 [3]: 7000 nM
inhibition at 100 µM ([4]; Cavia porcellus, at IC100, read-out: Δ% (percent change of contraction amplitude versus control) at IC100): 27%
IC100 ([4]; Cavia porcellus, 10 msec., 10-20 V, maximal effect, read-out: IC100 (inhibition concentration, maximal effect), contraction amplitude): 100 µM
IC50 ([4]; Cavia porcellus, 10 msec., 10-20 V, semimaximal effect, read-out: IC50 (inhibition concentration, semimaximal effect), contraction amplitude): 20000 nM
Δ% (percent change of contraction amplitude versus control) at IC50 ([4]; at IC50): -13%
IC50 [2]: 10000 nM

Further lines, with some results ahead:

IC50 [1]: 1800 nM
IC50 [3]: 1200 nM
EC50 [4, 8]: 15 nM
IC50 [2]: 1500 nM
SMILES: CCOC(=O)C1=C(C)Nc2nc[nH]c(=O)c2C1c1ccccc1F (racemic) [Example 1a, (±)-5-(2-Fluorophenyl)-3,4,5,8-tetrahydro-7-methyl-4-oxo-pyrido[2,3-d]pyrimidine-6-carboxylic acid ethyl ester]
activation at 1 µM ([4]; Cavia porcellus): 52%
EC100 [4, 7]: 1 µM
Δ% (percent change of contraction amplitude versus control) at ED50 [4]: +26%
Change of systol. blood pressure in percent ([5]; 12.5 mg/kg oral, 30 min.): -11%
Change of systol. blood pressure in percent ([5]; 12.5 mg/kg oral, 120 min.): -4%
Change of systol. blood pressure in percent ([5]; 12.5 mg/kg oral, 240 min.): +2%
Change of systol. blood pressure in percent ([5]; 12.5 mg/kg oral, 24 h): -1%
Change of systol. blood pressure in percent ([5]; 25 mg/kg oral, 30 min.): -24%
Change of systol. blood pressure in percent ([5]; 25 mg/kg oral, 120 min.): -2%
Change of systol. blood pressure in percent ([5]; 25 mg/kg oral, 240 min.): -1%
Change of systol. blood pressure in percent ([5]; 25 mg/kg oral, 24 h): +5%
Change of systol. blood pressure in percent ([5]; 50 mg/kg oral, 30 min.): -32%
Change of systol. blood pressure in percent ([5]; 50 mg/kg oral, 120 min.): -8%
Change of systol. blood pressure in percent ([5]; 50 mg/kg oral, 240 min.): +1%
Change of systol. blood pressure in percent ([5]; 50 mg/kg oral, 24 h): +4%
Change of systol. blood pressure in percent ([5]; 100 mg/kg oral, 30 min.): -40%
Change of systol. blood pressure in percent ([5]; 100 mg/kg oral, 120 min.): -19%
Change of systol. blood pressure in percent ([5]; 100 mg/kg oral, 240 min.): +2%
Change of systol. blood pressure in percent ([5]; 100 mg/kg oral, 24 h): -4%
antihypertensive effect after oral administration ([5]; oral, result in words): good and, dose-dependent, lasting antihypertensive effect
heart rate [6]: unchanged
blood pressure fell below the starting value ([6]; 75 minutes PA): 40%

IC50 [1]: ~400 nM
IC50 [2]: ~1000 nM
SMILES: CCOC(=O)C1=C(C)Nc2nc[nH]c(=O)c2C1c1ccccc1[N+](=O)[O-] (racemic) [Example 1b, (±)-3,4,5,8-Tetrahydro-7-methyl-5-(2-nitrophenyl)-4-oxo-pyrido[2,3-d]pyrimidine-6-carboxylic acid ethyl ester]
